# Results as given in PMC9090415, “Discovery of small molecule inhibitors of Plasmodium falciparum apicoplast DNA polymerase” (Journal of Enzyme Inhibition and Medicinal Chemistry, 2022).
# Biological target: P. falciparum apicoplast DNA polymerase (Pf-apPOL) (Plasmodium falciparum, UniProt Q8ILY1)
# Assay: Fluorescence-based high-throughput DNA polymerase assay (molecular beacon), primary screen and dose-response;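 on % inhibition ApPOL 90': test concentration in µM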;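 on % inhibition apPOL 180': test concentration in µM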
# Assay type: biochemical
# Summary of the method: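 Single-point screening used 10 µM compound with 20 nM polymerase, 20 nM hairpin substrate and 6 µM dNTPs for 90 min at 25 °C. Confirmatory titrations (2.5–80 µM) followed fluorescence at three times, and IC50 was derived from a fit including a cooperativity term n.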
# [1] = supplemental file 2, sheet IC50 nontoxic compounds; Pf-apPOL
# P. falciparum apicoplast DNA polymerase (Pf-apPOL), sequence (Q8ILY1 entry or part of it): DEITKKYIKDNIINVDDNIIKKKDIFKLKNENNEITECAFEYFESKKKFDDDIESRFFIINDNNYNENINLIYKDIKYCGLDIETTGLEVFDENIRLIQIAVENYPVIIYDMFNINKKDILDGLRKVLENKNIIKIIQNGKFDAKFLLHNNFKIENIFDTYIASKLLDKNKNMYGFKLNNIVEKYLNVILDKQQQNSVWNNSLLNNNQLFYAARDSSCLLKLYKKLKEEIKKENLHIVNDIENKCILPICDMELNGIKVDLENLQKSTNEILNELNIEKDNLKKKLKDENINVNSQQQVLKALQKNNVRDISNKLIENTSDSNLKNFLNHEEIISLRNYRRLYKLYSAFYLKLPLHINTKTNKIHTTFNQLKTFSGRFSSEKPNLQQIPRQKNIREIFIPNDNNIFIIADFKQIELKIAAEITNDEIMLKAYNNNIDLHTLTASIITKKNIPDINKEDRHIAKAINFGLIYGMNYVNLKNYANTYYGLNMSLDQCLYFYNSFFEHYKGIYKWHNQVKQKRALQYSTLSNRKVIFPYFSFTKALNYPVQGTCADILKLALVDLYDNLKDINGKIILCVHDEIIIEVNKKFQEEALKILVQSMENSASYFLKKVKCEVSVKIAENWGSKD
smiles,measurement,setting,value
"O=C(O)c1cccc(N2N=C(C(F)(F)F)/C(=C/c3ccc(-c4ccccc4[N+](=O)[O-])o3)C2=O)c1 [Molecule 100, O=C1N(N=C(/C/1=C/c1ccc(o1)c1ccccc1N(=O)=O)C(F)(F)F)c1cccc(c1)C(=O)O]",% inhibition Apo pol 10',DRC-1; 10'; concentration 2.5,26.1484%
same,% inhibition Apo pol 10',DRC-1; 10'; concentration 5,12.0969%
same,% inhibition Apo pol 10',DRC-1; 10'; concentration 10,67.0777%
same,% inhibition Apo pol 10',DRC-1; 10'; concentration 20,85.2952%
same,% inhibition Apo pol 10',DRC-1; 10'; concentration 40,91.4411%
same,% inhibition Apo pol 10',DRC-1; 10'; concentration 80,91.0692%
same,% inhibition Apol 90',DRC-1; 90'; concentration 2.5,19.5679%
same,% inhibition Apol 90',DRC-1; 90'; concentration 5,4.613%
same,% inhibition Apol 90',DRC-1; 90'; concentration 10,58.3032%
same,% inhibition Apol 90',DRC-1; 90'; concentration 20,83.4364%
same,% inhibition Apol 90',DRC-1; 90'; concentration 40,89.1977%
same,% inhibition Apol 90',DRC-1; 90'; concentration 80,89.0036%
same,% inhibition apPOL 180',DRC-1; 180'; concentration 2.5,13.4923%
same,% inhibition apPOL 180',DRC-1; 180'; concentration 5,1.454%
same,% inhibition apPOL 180',DRC-1; 180'; concentration 10,45.1585%
same,% inhibition apPOL 180',DRC-1; 180'; concentration 20,77.5112%
same,% inhibition apPOL 180',DRC-1; 180'; concentration 40,84.5547%
same,% inhibition apPOL 180',DRC-1; 180'; concentration 80,85.8771%
same,% inhibition Apo pol 5',DRC-2; 5'; concentration 2.5,20%
same,% inhibition Apo pol 5',DRC-2; 5'; concentration 5,27%
same,% inhibition Apo pol 5',DRC-2; 5'; concentration 10,47%
same,% inhibition Apo pol 5',DRC-2; 5'; concentration 20,55%
same,% inhibition Apo pol 5',DRC-2; 5'; concentration 40,63%
same,% inhibition Apo pol 5',DRC-2; 5'; concentration 80,64%
same,% inhibition Apol 40',DRC-2; 40'; concentration 2.5,23%
same,% inhibition Apol 40',DRC-2; 40'; concentration 5,30%
same,% inhibition Apol 40',DRC-2; 40'; concentration 10,51%
same,% inhibition Apol 40',DRC-2; 40'; concentration 20,65%
same,% inhibition Apol 40',DRC-2; 40'; concentration 40,76%
same,% inhibition Apol 40',DRC-2; 40'; concentration 80,78%
same,% inhibition ApPOL 90',DRC-2; 90'; concentration 2.5,21%
same,% inhibition ApPOL 90',DRC-2; 90'; concentration 5,29%
same,% inhibition ApPOL 90',DRC-2; 90'; concentration 10,51%
same,% inhibition ApPOL 90',DRC-2; 90'; concentration 20,65%
same,% inhibition ApPOL 90',DRC-2; 90'; concentration 40,77%
same,% inhibition ApPOL 90',DRC-2; 90'; concentration 80,81%
same,% inhibition apPOL 180',DRC-2; 180'; concentration 2.5,14%
same,% inhibition apPOL 180',DRC-2; 180'; concentration 5,20%
same,% inhibition apPOL 180',DRC-2; 180'; concentration 10,43%
same,% inhibition apPOL 180',DRC-2; 180'; concentration 20,60%
same,% inhibition apPOL 180',DRC-2; 180'; concentration 40,77%
same,% inhibition apPOL 180',DRC-2; 180'; concentration 80,84%
same,% inhibition Apo pol 5',conc. 2.5; 5'; DRC-2,20%
same,% inhibition apPOL 180',conc. 5; 180'; DRC-2,20%
same,% inhibition Apol 40',conc. 10; 40'; DRC-2,51%
same,% inhibition ApPOL 90',conc. 10; 90'; DRC-2,51%
same,% inhibition Apol 40',conc. 20; 40'; DRC-2,65%
same,% inhibition ApPOL 90',conc. 20; 90'; DRC-2,65%
same,% inhibition ApPOL 90',conc. 40; 90'; DRC-2,77%
same,% inhibition apPOL 180',conc. 40; 180'; DRC-2,77%
same,DNA Pol,"primary screen value by plate and well; 90 min, 10 µM",55
same,DNA Pol,"primary screen value of the 186 hits; unit not given; 90 min, 10 µM",55
CCOc1ccc(/C=C2\N=C(c3cc([N+](=O)[O-])cc([N+](=O)[O-])c3)OC2=O)cc1 [Molecule 97],IC50,[1],4.47 µM
Cn1nc(-c2nc(-c3ccccc3)no2)c2c1CCN(C(=O)Cc1cccs1)C2 [Molecule 58],IC50,[1],18.5 µM
Cc1ccc(C(=O)/C=C/C=C/C=C/N(C)C)o1 [Molecule 96],IC50,[1],4.93 µM
Nc1c(S(=O)(=O)O)cc(Nc2ccccc2)c2c1C(=O)c1ccccc1C2=O [KU0045407],DNA Pol,"'DNA Pol' of the 186 hits list (primary screen result); unit not given; 90 min, 10 µM",49
same,% inhibition Apo pol 10',DRC-1; 10'; concentration 2.5,39.3278%
same,% inhibition Apo pol 10',DRC-1; 10'; concentration 5,47.4944%
same,% inhibition Apo pol 10',DRC-1; 10'; concentration 10,57.4142%
same,% inhibition Apo pol 10',DRC-1; 10'; concentration 20,88.2417%
same,% inhibition Apo pol 10',DRC-1; 10'; concentration 40,98.9011%
same,% inhibition Apo pol 10',DRC-1; 10'; concentration 80,101.451%
same,% inhibition Apol 90',DRC-1; 90'; concentration 2.5,14.8722%
same,% inhibition Apol 90',DRC-1; 90'; concentration 5,18.228%
same,% inhibition Apol 90',DRC-1; 90'; concentration 10,36.638%
same,% inhibition Apol 90',DRC-1; 90'; concentration 20,73.4923%
same,% inhibition Apol 90',DRC-1; 90'; concentration 40,92.3698%
same,% inhibition Apol 90',DRC-1; 90'; concentration 80,99.716%
same,% inhibition apPOL 180',DRC-1; 180'; concentration 2.5,5.356%
same,% inhibition apPOL 180',DRC-1; 180'; concentration 5,9.027%
same,% inhibition apPOL 180',DRC-1; 180'; concentration 10,27.7566%
same,% inhibition apPOL 180',DRC-1; 180'; concentration 20,64.7558%
same,% inhibition apPOL 180',DRC-1; 180'; concentration 40,88.0246%
same,% inhibition apPOL 180',DRC-1; 180'; concentration 80,99.8487%
same,% inhibition Apo pol 5',"DRC-2, 5', concentration 10 (unit not given)",39%
same,% inhibition Apo pol 5',"DRC-2, 5', concentration 40 (unit not given)",75%
same,% inhibition Apol 40',"DRC-2, 40', concentration 5 (unit not given)",15%
same,% inhibition Apol 40',"DRC-2, 40', concentration 20 (unit not given)",81%
same,% inhibition Apol 40',"DRC-2, 40', concentration 40 (unit not given)",86%
same,% inhibition ApPOL 90',"DRC-2, 90', concentration 10 (unit not given)",39%
same,% inhibition ApPOL 90',"DRC-2, 90', concentration 20 (unit not given)",81%
same,% inhibition apPOL 180',"DRC-2, 180', concentration 20 (unit not given)",75%
same,% inhibition apPOL 180',"DRC-2, 180', concentration 80 (unit not given)",86%
same,% inhibition Apo pol 5',DRC-2; 5'; concentration 2.5,2.61%
same,% inhibition Apo pol 5',DRC-2; 5'; concentration 5,15%
same,% inhibition Apo pol 5',DRC-2; 5'; concentration 5 (unit not given),15%
same,% inhibition Apo pol 5',DRC-2; 5'; concentration 10,39%
same,% inhibition Apo pol 5',DRC-2; 5'; concentration 20,73%
same,% inhibition Apo pol 5',DRC-2; 5'; concentration 40,75%
same,% inhibition Apo pol 5',DRC-2; 5'; concentration 80,62%
same,% inhibition Apol 40',DRC-2; 40'; concentration 2.5,1.87%
same,% inhibition Apol 40',DRC-2; 40'; concentration 5,15%
same,% inhibition Apol 40',DRC-2; 40'; concentration 10,40%
same,% inhibition Apol 40',DRC-2; 40'; concentration 20,81%
same,% inhibition Apol 40',DRC-2; 40'; concentration 40,86%
same,% inhibition Apol 40',DRC-2; 40'; concentration 80,80%
same,% inhibition ApPOL 90',DRC-2; 90'; concentration 2.5,2.58%
same,% inhibition ApPOL 90',DRC-2; 90'; concentration 5,14%
same,% inhibition ApPOL 90',DRC-2; 90'; concentration 10,39%
same,% inhibition ApPOL 90',DRC-2; 90'; concentration 20,81%
same,% inhibition ApPOL 90',DRC-2; 90'; concentration 40,87%
same,% inhibition ApPOL 90',DRC-2; 90'; concentration 80,83%
same,% inhibition apPOL 180',DRC-2; 180'; concentration 2.5,3.63%
same,% inhibition apPOL 180',DRC-2; 180'; concentration 5,5%
same,% inhibition apPOL 180',DRC-2; 180'; concentration 10,30%
same,% inhibition apPOL 180',DRC-2; 180'; concentration 20,75%
same,% inhibition apPOL 180',DRC-2; 180'; concentration 40,85%
same,% inhibition apPOL 180',DRC-2; 180'; concentration 80,86%
same,DNA Pol,"primary screen value of the library well; unit not given; 90 min, 10 µM",49
N#Cc1c(C2CCCCC2)nc(Sc2ccc(C(F)(F)F)cc2[N+](=O)[O-])[nH]c1=O [Molecule 20],IC50,[1],8.81 µM
"CN(C)C=C1SCc2ccccc2C1=O [Molecule 77, CN(C=C1SCc2c(C1=O)cccc2)C]",DNA Pol,"'DNA Pol'; screening value, unit not given; 90 min, 10 µM",85
same,% inhibition Apo pol 10',DRC-1; 10'; concentration 2.5,11.5763%
same,% inhibition Apo pol 10',DRC-1; 10'; concentration 5,16.7667%
same,% inhibition Apo pol 10',DRC-1; 10'; concentration 10,31.6418%
same,% inhibition Apo pol 10',DRC-1; 10'; concentration 20,51.9221%
same,% inhibition Apo pol 10',DRC-1; 10'; concentration 40,56.5642%
same,% inhibition Apo pol 10',DRC-1; 10'; concentration 80,84.5209%
same,% inhibition Apol 90',DRC-1; 90'; concentration 2.5,2.782%
same,% inhibition Apol 90',DRC-1; 90'; concentration 5,3.396%
same,% inhibition Apol 90',DRC-1; 90'; concentration 10,10.9684%
same,% inhibition Apol 90',DRC-1; 90'; concentration 20,24.755%
same,% inhibition Apol 90',DRC-1; 90'; concentration 40,26.7268%
same,% inhibition Apol 90',DRC-1; 90'; concentration 80,62.9199%
same,% inhibition apPOL 180',DRC-1; 180'; concentration 2.5,-2.727%
same,% inhibition apPOL 180',DRC-1; 180'; concentration 5,-5.416%
same,% inhibition apPOL 180',DRC-1; 180'; concentration 10,0.7299%
same,% inhibition apPOL 180',DRC-1; 180'; concentration 20,8.887%
same,% inhibition apPOL 180',DRC-1; 180'; concentration 40,10.8248%
same,% inhibition apPOL 180',DRC-1; 180'; concentration 80,43.5104%
same,% inhibition Apo pol 5',"DRC-2, 5', concentration 2.5",2.65%
same,% inhibition Apo pol 5',"DRC-2, 5', concentration 5",5.48%
same,% inhibition Apo pol 5',"DRC-2, 5', concentration 10",20%
same,% inhibition Apo pol 5',"DRC-2, 5', concentration 20",33%
same,% inhibition Apo pol 5',"DRC-2, 5', concentration 40",41%
same,% inhibition Apo pol 5',"DRC-2, 5', concentration 80",52%
same,% inhibition Apol 40',"DRC-2, 40', concentration 2.5",2%
same,% inhibition Apol 40',"DRC-2, 40', concentration 5",4%
same,% inhibition Apol 40',"DRC-2, 40', concentration 10",13%
same,% inhibition Apol 40',"DRC-2, 40', concentration 20",26%
same,% inhibition Apol 40',"DRC-2, 40', concentration 40",34%
same,% inhibition Apol 40',"DRC-2, 40', concentration 80",57%
same,% inhibition ApPOL 90',"DRC-2, 90', concentration 2.5",0.807%
same,% inhibition ApPOL 90',"DRC-2, 90', concentration 5",1%
same,% inhibition ApPOL 90',"DRC-2, 90', concentration 10",8%
same,% inhibition ApPOL 90',"DRC-2, 90', concentration 20",18%
same,% inhibition ApPOL 90',"DRC-2, 90', concentration 40",26%
same,% inhibition ApPOL 90',"DRC-2, 90', concentration 80",54%
same,% inhibition apPOL 180',"DRC-2, 180', concentration 2.5",-3%
same,% inhibition apPOL 180',"DRC-2, 180', concentration 5",-3.45%
same,% inhibition apPOL 180',"DRC-2, 180', concentration 10",0.193%
same,% inhibition apPOL 180',"DRC-2, 180', concentration 20",7.49%
same,% inhibition apPOL 180',"DRC-2, 180', concentration 40",14%
same,% inhibition apPOL 180',"DRC-2, 180', concentration 80",45%
same,% inhibition Apol 40',conc 20 (unit not given); 40'; DRC-2,26%
same,% inhibition ApPOL 90',conc 40 (unit not given); 90'; DRC-2,26%
same,DNA Pol,"primary screen hit value, DNA Pol (186 hits); 90 min, 10 µM",85
